Measurements reported in ChEMBL document CHEMBL4680147, “Discovery of 6'-chloro-N-methyl-5'-(phenylsulfonamido)-[3,3'-bipyridine]-5-carboxamide (CHMFL-PI4K-127) as a novel Plasmodium falciparum PI(4)K inhibitor with potent antimalarial activity against both blood and liver stages of Plasmodium” (Eur J Med Chem, 2020).
Activity calls are given as the source filed them. No cut-off for these calls is given here.

Key:
[1] = Mean residence time (0 to t) in Sprague-Dawley rat at 10 mg/kg, po; format: ADME, organism-based; settings: in vivo
[2] = Tmax in mouse at 10 mg/kg, po; format: ADME, organism-based; settings: in vivo
[3] = Tmax in mouse at 1 mg/kg, iv; format: ADME, organism-based; settings: in vivo
[4] = Apparent volume of distribution in mouse at 1 mg/kg, iv; format: ADME, organism-based; settings: in vivo, read-out: Vz
[5] = Mean residence time (0 to t) in mouse at 1 mg/kg, iv; format: ADME, organism-based; settings: in vivo
[6] = test system: Plasmodium falciparum; experiment: Antimalarial activity against chloroquine resistant Plasmodium falciparum D10 infected in human O+ erythrocytes incubated for 72 hrs by SYBR Green 1 dye based fluorescence assay; format: functional, organism-based; settings: D10, Erythrocyte
[7] = AUC(0 to infinity) in Sprague-Dawley rat at 10 mg/kg, po; format: ADME, organism-based; design: time infinity, route oral, dose 10 mg/kg; settings: in vivo
[8] = test system: Plasmodium yoelii; experiment: Antimalarial activity against blood stage Plasmodium yoelii infected in BALB/c mouse assessed as suppression of parasitemia at 60 mg/kg/day, po administered for 7 consecutive days starting from 1 day post-infection and measured after cessation of drug treatment by Giemsa-staining based microscopic analysis; format: functional, organism-based; settings: time 7.0 day
[9] = test system: Plasmodium falciparum; experiment: Antimalarial activity against artemisinin resistant Plasmodium falciparum 803 infected in human O+ erythrocytes incubated for 72 hrs by SYBR Green 1 dye based fluorescence assay; format: functional, organism-based; settings: Plasmodium falciparum, 803, Erythrocyte
[10] = AUC(0 to t) in mouse at 10 mg/kg, po; format: ADME, organism-based; design: dose 10 mg/kg; settings: in vivo
[11] = test system: Plasmodium falciparum; experiment: Antimalarial activity against sulphadoxine-resistant blood stage Plasmodium falciparum 3D7 infected in human O+ erythrocytes incubated for 72 hrs by SYBR Green 1 dye based fluorescence assay; format: functional, organism-based; settings: 3D7, Erythrocyte
[12] = Selectivity index, ratio of IC50 for human PI3Kdelta to IC50 for recombinant His-tagged Plasmodium falciparum 3D7 PI4K expressed in baculovirus infected Sf9 cells
[13] = Tmax in Sprague-Dawley rat at 10 mg/kg, po; format: ADME, organism-based; settings: in vivo
[14] = Selectivity index, ratio of IC50 for human PI3Kalpha to IC50 for recombinant His-tagged Plasmodium falciparum 3D7 PI4K expressed in baculovirus infected Sf9 cells
[15] = AUC(0 to t) in mouse at 1 mg/kg, iv; format: ADME, organism-based; design: dose 1 mg/kg; settings: in vivo
[16] = Selectivity index, ratio of EC50 for antimalarial activity against Plasmodium falciparum harboring PI4K Y1342I/T1360A mutant infected in human O+ erythrocytes to EC50 for antimalarial activity against Plasmodium falciparum harboring PI4K Y1342I mutant infected in human O+ erythrocytes; format: functional
[17] = test system: Plasmodium berghei; experiment: Antimalarial activity against […] luciferase-expressing Plasmodium berghei sporozoites infected in BALB/c mouse assessed as suppression of parasitemia at 1 to 15 mg/kg, po treated for 2 hrs followed by parasite infection and measured upto 8 days post-infection by luciferase based real-time imaging analysis; format: functional, organism-based; settings: dose 1-15 mg/kg, time 194.0 hrs
[18] = Apparent clearance in mouse at 10 mg/kg, po; format: ADME, organism-based; settings: in vivo, read-out: CL(app) (converted)
[19] = AUC(0 to t) in Sprague-Dawley rat at 1 mg/kg, iv; format: ADME, organism-based; design: dose 1 mg/kg; settings: in vivo
[20] = Apparent volume of distribution in Sprague-Dawley rat at 10 mg/kg, po; format: ADME, organism-based; settings: in vivo
[21] = target: T1, Phosphatidylinositol 4,5-bisphosphate 3-kinase catalytic subunit delta isoform (Homo sapiens, UniProt O00329); experiment: Inhibition of human PI3Kdelta by ADP-Glo kinase assay
T1 sequence (O00329 whole entry): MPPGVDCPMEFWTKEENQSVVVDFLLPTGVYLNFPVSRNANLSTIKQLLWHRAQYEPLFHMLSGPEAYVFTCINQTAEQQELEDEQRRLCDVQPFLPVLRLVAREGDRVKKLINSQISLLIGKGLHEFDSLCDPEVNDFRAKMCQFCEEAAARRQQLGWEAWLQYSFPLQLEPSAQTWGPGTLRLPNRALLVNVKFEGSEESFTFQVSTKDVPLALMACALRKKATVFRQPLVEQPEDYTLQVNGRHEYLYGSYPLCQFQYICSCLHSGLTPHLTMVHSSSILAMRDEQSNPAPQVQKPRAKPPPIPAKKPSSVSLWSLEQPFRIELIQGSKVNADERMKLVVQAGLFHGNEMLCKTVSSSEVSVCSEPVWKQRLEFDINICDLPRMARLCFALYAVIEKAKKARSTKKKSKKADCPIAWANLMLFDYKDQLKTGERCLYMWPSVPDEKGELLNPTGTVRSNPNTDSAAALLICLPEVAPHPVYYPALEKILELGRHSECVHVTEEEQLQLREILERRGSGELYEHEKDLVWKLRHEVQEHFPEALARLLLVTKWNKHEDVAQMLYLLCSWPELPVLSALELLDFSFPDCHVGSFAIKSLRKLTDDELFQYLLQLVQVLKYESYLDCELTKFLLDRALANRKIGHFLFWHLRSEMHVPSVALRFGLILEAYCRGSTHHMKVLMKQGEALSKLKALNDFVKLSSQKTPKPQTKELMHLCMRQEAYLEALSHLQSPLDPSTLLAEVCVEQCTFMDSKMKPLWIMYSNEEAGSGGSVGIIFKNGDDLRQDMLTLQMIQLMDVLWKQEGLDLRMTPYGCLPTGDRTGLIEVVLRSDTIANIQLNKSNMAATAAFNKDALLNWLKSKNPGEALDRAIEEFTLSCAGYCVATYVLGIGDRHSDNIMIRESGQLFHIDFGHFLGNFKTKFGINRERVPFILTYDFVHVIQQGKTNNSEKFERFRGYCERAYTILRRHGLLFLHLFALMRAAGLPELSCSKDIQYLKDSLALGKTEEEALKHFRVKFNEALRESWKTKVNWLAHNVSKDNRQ

[22] = Selectivity index, ratio of IC50 for human PI3Kbeta to IC50 for recombinant His-tagged Plasmodium falciparum 3D7 PI4K expressed in baculovirus infected Sf9 cells
[23] = Half life in Sprague-Dawley rat at 10 mg/kg, po; format: ADME, organism-based; settings: in vivo
[24] = test system: Plasmodium falciparum; experiment: Antimalarial activity against blood stage Plasmodium falciparum harboring PI4K Y1342I/T1360A mutant infected in human O+ erythrocytes incubated for 72 hrs by SYBR Green 1 dye based fluorescence assay; format: functional, organism-based; settings: Erythrocyte
[25] = Half life in Sprague-Dawley rat at 1 mg/kg, iv; format: ADME, organism-based; settings: in vivo
[26] = Half life in mouse at 1 mg/kg, iv; format: ADME, organism-based; settings: in vivo
[27] = AUC(0 to t) in Sprague-Dawley rat at 10 mg/kg, po; format: ADME, organism-based; design: dose 10 mg/kg; settings: in vivo

`CNC(=O)c1cncc(-c2cnc(Cl)c(NS(=O)(=O)c3ccccc3)c2)c1` showed an MRT last [1] of 4.3 h, a Tmax [2] of 0.19 h and a Tmax [3] of 1.8 min. For the same molecule, the Vd [4] was 12.1 L/kg, the MRT last [5] was 3.1 h and the EC50 [6] was 28 nM. For the same molecule, the AUC(0-inf) [7] was 19300 ng·h/mL, the Activity [8] was “inactive” and the EC50 [9] was 30.9 nM. For the same molecule, the AUC(0-t) [10] was 2630 ng·h/mL, the EC50 [11] was 25.1 nM and the Ratio IC50 [12] was 100. The Tmax [13] was 0.83 h, the Ratio IC50 [14] was 100 and the AUC(0-t) [15] was 327 ng·h/mL. For the same molecule, the “Ratio EC50” value [16] was 24, the Activity [17] was “Active” and the CL/F [18] was 65 mL/min/kg. The AUC(0-t) [19] was 2160 ng·h/mL, the Vz [20] was 2.2 L/kg and the IC50 [21] was 104 nM. It also gave a Ratio IC50 [22] of 400, a half-life [23] of 2.9 h and an EC50 [24] of 248 nM. It also gave a half-life [25] of 3.5 h, a half-life [26] of 2.7 h and an AUC(0-t) [27] of 19300 ng·h/mL.
